# Assay results: PMC7076650, “Co-Encapsulation of Mitoxantrone and β-Elemene in Solid Lipid Nanoparticles to Overcome Multidrug Resistance in Leukemia” (Pharmaceutics, 2020)
# Where two headings read alike, the source gives them in different places.
# What was measured:
# K562/DOX cells [1] = assay: Drug efflux study (DOX retained, flow cytometry), K562/DOX cells; format: cell-based; details: 10 μg/mL DOX loaded 4 h at 37 °C, then free medium
# Method: In order to determine DOX efflux, K562 and K562/DOX cells were seeded and incubated in 12-well plates (1 × 10^5 cells/well). Different DOX formulations diluted with fresh medium to a concentration of 10 μg/mL were incubated with K562 and K562/DOX cells for 4 h at 37 °C. Subsequently, the cells were washed three times with ice-cold PBS, and then incubated with free medium at another 0.5, 1, 2, and 4 h. Ice-cold PBS was used to wash the cells at the end of each incubation time. The amounts of DOX retained in cells were determined by flow cytometry. The investigation was carried out in triplicate.
# K562/DOX cells [2] = assay: MTT assay of combinatorial effects of MTO and βE in different mass ratios; format: cell-based; details: Homo sapiens, 48 h of incubation
# Method: The combinatorial effects of MTO and βE in different ratios (w/w) were assessed against K562/DOX through MTT assay. With a density of 5 × 10^3 cells/well, K562/DOX cells were seeded in 96-well plates and incubated for 48 h, then treated with different concentrations of MTO dissolved in the free medium of RPMI-1640, βE dissolved in the mixture of (RPMI-1640 and 0.5% DMSO), and different combination mass ratios of MTO/βE (10:1, 5:1, 2:1, 1:1, 1:2, 1:5, and 1:10 w/w). After 48 h of incubation, cells were washed twice with cold PBS, and then incubated again for 4 h with 20 µL of MTT solution (5 mg/mL) added to each well. In order to solubilize the formazan crystals, 150 μL of DMSO per well was added to replace the medium. Finally, a Microplate Reader (Biotech, Winooski, VT, USA) was used to measure the UV absorbance intensity at 570 nm. Each measurement was performed in triplicate. The cell viability percentage was evaluated using the following equation: Cell Viability (%)=ODsample /ODcontrol×100% where ODSample stands for the optical density (absorbance intensity) of the cells treated with MTO, βE, or MTO in combination with βE, while ODControl is the absorbance intensity of the untreated cells. […] The synergistic effect of different combinations of MTO and βE was assessed through the calculation of combination index (CI) using the equation of Chou and Talalay. […]
# K562 cells = assay: MTT cytotoxicity of MTO formulations in K562 cells; format: cell-based; details: n = 3; for IC50: Homo sapiens, K562, 48 h
# Method: (§1) A cytotoxicity study of MTO, MTO/βE, MTO-SLNs, and MTO/βE-SLNs was also carried out by MTT assay in both K562 and K562/DOX cells lines. K562 cells and K562/DOX cells were seeded in a 96-well plate at a density of 5 × 10^3 cells/well and incubated for 48 h. Then, the cells were treated with MTO, MTO/βE, MTO-SLNs, and MTO/βE-SLNs at different doses (total amount of MTO in SLNs: 0.01, 0.1, 1, 2.5, 5, and 10 μg/mL in K562 cells and 0.1, 1, 10, 20, 40, and 80 μg/mL in K562/DOX cells for 48 h. After 48 h of incubation, cells were washed twice with cold PBS then incubated again for 4 h with 20 µL of MTT solution (5 mg/mL) added to each well. In order to solubilize the formazan crystals, 150 μL of DMSO per well was added to replace the medium. Finally, a Microplate Reader (Biotech) was used to measure the UV absorbance intensity at 570 nm. Each measurement was performed in triplicate. The cell viability percentage was evaluated using the following equation [4, 10]: Cell Viability (%)=ODsample /ODcontrol×100% where ODsample stands for the absorbance intensity of the cells treated with MTO, MTO/βE, MTO-SLNs, and MTO/βE-SLNs, while ODControl is the absorbance intensity of the untreated cells. The 50% inhibition concentrations (IC50) of different agents were calculated by Graph Pad Prism 5.0 software. All experiments were in triplicate and the results were given as means ± SD.
# (§2) The different effects of drug formulations on K562/DOX were evaluated in the MDR reversal capacities through the index of drug resistance (IDR) and index of reversal of drug resistance (IRDR). IDR and IRDR were calculated as follows: IDR=IC50of other formulation against K562/DOX cells/IC50of MTO against K562 CellsIRDR=IC50of MTO against K562 cells /IC50of other formulation against K562/DOX cells
# K562/DOX cells [3] = assay: MTT cytotoxicity of MTO formulations in K562/DOX cells; format: cell-based; details: for IC50: Homo sapiens, K562/DOX cells, n = 3
# Method: as §1, §2
# [4] = Pharmacokinetics after intravenous administration; format: in vivo, SD rats; details: rats; for AUC(0-t) / Cmax / half-life: male, Sprague-Dawley (SD), rat, plasma; for time post injection after which no drug was observed in plasma: free drug
# Method: All the preparations were administered intravenously into the tail vein at a dose of 2 mg/kg (n = 6) for MTO and 4 mg/kg (n = 6) for βE. The blood samples were taken with a heparinized syringe at 0.5, 1, 2, 4, 6, 8, 12, and 24 h.
# [5] = system: K562/DOX xenografts tumors; assay: In vivo antitumor activity in K562/DOX xenograft tumor model; parameters: species or system BALB/c nude mice; details: during treatment, compared with saline
# Method: Mice bearing K562/DOX xenografts tumors were used to evaluate different MTO formulations through an in vivo antitumor efficacy study. K562/DOX cells at a concentration of 1 × 10^7 cells/mice with a volume of 200 μL were injected into the left axilla of BALB/c nude mice. After inoculation of cells, the growth of tumor was observed every two days by measuring the diameter of tumor with Vernier caliper. The tumor volume was calculated as (L × W^2)/2, where L and W are the tumor length and width, respectively. The anti-tumor evaluation was started when tumor volume reached about 100 mm^3, and this day was designated as day 0. Mice were randomly divided in five groups of six: Saline, MTO, MTO/βE, MTO-SLNs, and MTO/βE-SLNs (MTO dosage: 2 mg/kg and βE dosage: 4 mg/kg). The injections were carried out on days 0, 3, 6, 9, and 12 via the tail vein. In order to evaluate the treatment efficacy and safety, mice were sacrificed, and then tumors, heart, lung, liver, kidney, and spleen were dissected and fixed in 4% paraformaldehyde. In order to observe the pathological changes in different tissues, samples were cut and stained with hematoxylin and eosin (H&E) for histological analyses. An optical microscope (Leica DMI6000 B, Wetzlar, Germany) was used to take different photos. […]
# K562/DOX cells [6] = assay: Intracellular ATP production assay; format: cell-based; details: 8 h at 37 °C
# Method: An ATP assay kit was used to measure the intracellular ATP. K562/DOX cells at a density of 1 × 10^5 cells/well were seeded and cultured in 12-well plates and incubated for 24 h. The cells were then incubated with fresh medium containing MTO, MTO/βE, MTO-SLNs, and MTO/βE-SLNs for 8 h at 37 °C. The cell ATP content was determined based on the manufacturer’s protocol. Briefly, the cells were collected and lysed by 200 μL of lysis solution to obtain the cell lysate, followed by centrifugation at 12,000× g for 5 min at 4 °C. Next, 20 μL of the supernatant of each sample was mixed with 100 μL of ATP testing solution in a black 96-well plate, and kept for 10 min. A microplate luminometer (Luminoskan, Thermo Scientific, Waltham, MA, USA) was used to measure the luminescence intensity. The raw data were converted to ATP concentrations using the standard ATP calibration.
# K562/A02 cells = system: K562/A02 cells; parameters: method as in PMID 29453043; details: cited from earlier work
compound,measurement,setting,value
"COc1cccc2c1C(=O)c1c(O)c3c(c(O)c1C2=O)C[C@@](O)(C(=O)CO)C[C@@H]3O[C@H]1C[C@H](N)[C@H](O)[C@H](C)O1 [DOX, doxorubicin]",DOX that underwent efflux,K562/DOX cells [1],about 90%
"Cl.Cl.O=C1c2c(O)ccc(O)c2C(=O)c2c(NCCNCCO)ccc(NCCNCCO)c21 [MTO, 1,4-dihydroxy-5,8-bis[[2-[(2-hydroxyethyl)amino]ethyl]amino] anthraquinone dihydrochloride]",IC50,"K562/DOX cells [2]; n = 3, concentration of MTO alone or in the combination, read-out: IC50 MTO",48.2 µg/mL
same,IC50 K562,K562 cells; 48 h,5.025 µg/mL
same,IC50,K562 cells,5.02 µg/mL
same,IC50,K562/DOX cells [3]; 48 h,48.2 µg/mL
same,cell survival rate of K562/DOX cells,"K562/DOX cells [3]; concentration of MTO 10 μg/mL, 48 h",81.43%
same,survival ratio in K562/DOX cells,"K562/DOX cells [3]; concentration of MTO 80 μg/mL, 48 h",24.06%
same,IDR (index of drug resistance),K562/DOX cells [3]; from IC50 in K562/DOX and K562 cells,9.59
same,AUC(0-t),"[4]; 2 mg/kg MTO, n = 6, read-out: AUC0–24 of MTO",1180 ± 150 ng·h/mL
same,Cmax,"[4]; 2 mg/kg MTO, n = 6, read-out: Cmax of MTO",3450 ± 580 ng/mL
same,half-life,"[4]; 2 mg/kg MTO, n = 6, read-out: T1/2 of MTO (converted)",1.53 ± 0.33 h
same,time post injection after which no drug was observed in plasma,[4],6 h
same,body weight of mice,[5],decreased remarkably
"C=CC1(C)CCC(C(=C)C)CC1C(=C)C (stereo not shown) [βE, 1-methyl-1-vinyl-2,4-diisopropenyl-cyclohexane]",IC50,"K562/DOX cells [2]; n = 3, concentration of βE alone or in the combination, read-out: IC50 βE",140 µg/mL
same,IC50,K562 cells,122 µg/mL
same,IC50,K562/DOX cells [3]; 48 h,140 µg/mL
same,effect on intracellular ATP,K562/DOX cells [6],significant inhibitory capacity
same,AUC(0-t),"[4]; 4 mg/kg βE, n = 6, read-out: AUC0–24 of βE",4860 ± 1760 ng·h/mL
same,Cmax,"[4]; 4 mg/kg βE, n = 6, read-out: Cmax of βE",6680 ± 1210 ng/mL
same,half-life,"[4]; 4 mg/kg βE, n = 6, read-out: T1/2 of βE (converted)",2.9 ± 0.45 h
same,time post injection after which no drug was observed in plasma,[4],12 h
ethyl lucidenates-A,reversal of resistance of K562/A02 cells to vincristine,K562/A02 cells,7.59 fold
